Assay results as given in patent US20100216854A1, “1,3 AND 1,3,5 SUBSTITUTED IMIDAZOLES AS […]” (Eldrug S.A., priority 2007, published 2010).
Values joined by “and” are separate entries in the source; they are usually repeats but may differ in a detail not shown here. Equal values may be shown once. Marks after values point to notes of the source that are not given here.

Legend:
[1] = target: T1, Angiotensin II (AII) receptor (Oryctolagus cuniculus, UniProt P34976); experiment: Hypotensive effect as ARBs in anesthetized rabbits made hypertensive by AII infusion; format: in vivo, New Zealand White rabbits; conditions: AII infusion 1 μg/min; for Mean BP after 1st bolus (150 ng/kg) / Mean BP after 1st bolus (300 ng/kg): IV bolus; for Mean BP after 1st bolus (150 ng/kg) / Mean BP after 2nd bolus (300 ng/kg) / Mean BP after 1st bolus (300 ng/kg) / Mean BP after 2nd bolus (600 ng/kg): mean ± S.D.; for Mean BP after 2nd bolus (300 ng/kg): second IV bolus 15 min after 150 ng/kg; for Mean BP after 2nd bolus (600 ng/kg): second IV bolus 15 min after 300 ng/kg
T1 construct: evaluated in the anesthetized rabbit preparation made hypertensive by intravenous infusion of AII; from tissue; host or cells: whole living New Zealand White rabbit (in vivo blood pressure)
T1 sequence (P34976 1-359): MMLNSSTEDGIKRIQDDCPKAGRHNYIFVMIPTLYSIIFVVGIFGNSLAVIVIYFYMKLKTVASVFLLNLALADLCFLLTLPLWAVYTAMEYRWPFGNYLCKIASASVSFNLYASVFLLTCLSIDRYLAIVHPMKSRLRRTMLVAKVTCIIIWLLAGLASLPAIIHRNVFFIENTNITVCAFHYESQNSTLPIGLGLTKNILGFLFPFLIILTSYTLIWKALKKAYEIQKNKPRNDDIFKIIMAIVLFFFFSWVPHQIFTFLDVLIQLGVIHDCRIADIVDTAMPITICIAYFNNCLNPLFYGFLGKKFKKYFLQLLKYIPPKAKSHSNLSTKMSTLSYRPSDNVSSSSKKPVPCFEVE
Procedure: The hypotensive effect of these compounds as ARBs was evaluated in the anesthetized rabbit preparation made hypertensive by intravenous infusion of AII. In brief, adult normotensive male New Zealand White rabbits weighing between 2.5 and 3.5 kg were anesthetized by pentobarbitone (30 mg/kg), intubated and mechanically ventilated with 100% oxygen using a respirator for small animals (MD Industries, Mobile, Ala., USA). The tidal volume was 15 ml and the rate was adjusted to keep blood gases within normal range. Two polyethylene catheters were inserted, one in the carotid artery for continuous blood pressure monitoring via a transducer attached to a multichannel recorder (Nihon-Kohden, Model 6000, Japan) and the other one in the jugular vein for the administrations of solution made by diluting angiotensin II (ANGII) (Hypertension, CIBA) in 5% dextrose at final concentration of 5 μg/ml. Based on previous testing with this rabbit preparation submaximal angiotensin II-dependent hypertension was induced by infusing angiotensin via a syringe pump (Harvard Apparatus Pump 22, Harvard Apparatus, Natick, Mass., USA) at a constant rate of 0.2 ml/min (1 μg/min). Five minutes after the establishment of hypertension, two cumulative IV boluses of each compound were given via an ear vein 15 minutes apart. After the second bolus mean blood pressure was recorded for 30 minutes and the experiment was terminated. […]
Compounds E-P, H—P, H-Px, were also tested for the AngII receptor blocker properties, by testing their ability to block the hypertensive effect of AngII, using adult normotensive male New Zealand white rabbits. […] Values represent the mean blood pressure and are given as mean±S.D.

rat uterus = rat uterus assay; cited from earlier work
[2] = anesthetized rabbits; cited from earlier work
[3] = Effect on mean BP in anesthetized normotensive rabbits (agonistic effect); format: in vivo; conditions: cumulative IV injections of 300-900 ng/kg
α2-AR = experiment: Testing α2-agonist properties: BP response to norepinephrine bolus before and after compound in mice; format: in vivo, Swiss Webster mice; conditions: for suppression of the hypertensive effect of NE: NE bolus 30 minutes after injection of compound, higher dose (300) for E-P, 100 for H-P, H-Px and UK 14304; for BP after compound (100 μg/kg): iv 100 μg/kg; for BP after compound (300 μg/kg): iv 300 μg/kg
Procedure: Swiss Webster mice were anesthetized with 50 mg/kg pentobarbital and two lines were inserted, one in right iliac artery and the other in right iliac vein. Next morning the arterial line was connected to a blood pressure transducer and the mean BP was recorded with a Power lab/800 data acquisition system. The venous line was used for drug infusion.

[4] = group mean, after 100 μg/kg compound, second NE bolus 30 min after compound
[5] = group mean, BP recorded after injection
[6] = individual mice, 100 μg/kg compound
[7] = individual mice, after 100 μg/kg compound

**Q.** Which “Cumulative % drop in mean BP after the 2nd bolus” value (from here on “Cumulative % drop in mean BP”) ([1]; boluses 150 then 300 ng/kg) does the source give for CCOc1nc2cccc(C(=O)O)c2n1Cc1ccc(-c2ccccc2-c2nnn[nH]2)cc1 [Candesartan] here?
**A.** The value was −41 ± 3%.

**Q.** Which agonist activity (rat uterus) does the source give for [Sar^1, Lys^3, Glu^5]ANG II here?
**A.** The agonist activity was “possesses agonist activity”.

**Q.** And the agonist activity [2]?
**A.** Its agonist activity is “possesses agonist activity”.

**Q.** For CCCCc1nc(Cl)c(CO)n1Cc1ccc(-c2ccccc2-c2nn[nH]n2)cc1 [Losartan], which “Mean BP after 1st bolus (150 ng/kg)” value [1] is on record?
**A.** Its value is 148 ± 6 mmHg.

**Q.** And the “Mean BP after 2nd bolus (300 ng/kg)” value [1]?
**A.** Its value is 136 ± 3 mmHg.

**Q.** And the “Cumulative % drop in mean BP” value ([1]; boluses 150 then 300 ng/kg)?
**A.** Its value is −22 ± 5%.

**Q.** What does the source list for NCCc1cncn1Cc1ccccc1-c1nnn[nH]1 [H-Px]?
**A.** effect on mean BP [3]: did not significantly affect mean BP; suppression of the hypertensive effect of NE (α2-AR): 42%; Δ2 = BP changes between second bolus of Norepinephrine and the new baseline BP after injection of compound (α2-AR; group mean, 100 μg/kg compound): 12.0 mmHg; BP after second bolus NE (0.12 μg/kg) (α2-AR; [4]): 128.3 mmHg; BP after compound (100 μg/kg) (α2-AR; [5]): 125.3 mmHg; Δ2 = BP changes between second bolus of Norepinephrine and the new baseline BP after injection of compound (α2-AR; [6]): 15* mmHg and 11.0 mmHg and 13.0 mmHg; BP after second bolus NE (0.12 μg/kg) (α2-AR; [7]): 114.0 mmHg and 136.0 mmHg and 135.0 mmHg; BP after compound (100 μg/kg) (α2-AR; individual mice): 129.0 mmHg and 125.0 mmHg and 122.0 mmHg; dose required to suppress NE effect (α2-AR; mice): 0.1 mg/kg; Mean BP after 1st bolus (300 ng/kg) [1]: 148 ± 23 mmHg; Mean BP after 2nd bolus (600 ng/kg) [1]: 131 ± 15 mmHg; Cumulative % drop in mean BP after the 2nd bolus ([1]; boluses 300 then 600 ng/kg): −24 ± 4%

**Q.** Which “effect on mean BP” value [3] does the source give for N=C(N)NCCc1cncn1Cc1ccccc1-c1nnn[nH]1 [E-P] here?
**A.** Its value is “did not significantly affect mean BP”.

**Q.** And the “suppression of the hypertensive effect of NE” value (α2-AR)?
**A.** Its value is 45%.

**Q.** What about the “Δ2 = BP changes between second bolus of Norepinephrine and the new baseline BP after injection of compound” value (“Δ2 = BP changes between second bolus” below) (α2-AR; group mean, 100 μg/kg compound) of the same compound?
**A.** Its value is 23.0 mmHg.

**Q.** And the “Δ2 = BP changes between second bolus” value (α2-AR; group mean, 300 μg/kg compound)?
**A.** The value was 12.3 mmHg.

**Q.** What about the “BP after second bolus NE (0.12 μg/kg)” value (α2-AR; [4]) of the same compound?
**A.** Its value is 153.5 mmHg.

**Q.** And the “BP after second bolus NE (0.12 μg/kg)” value (α2-AR; group mean, after 300 μg/kg compound)?
**A.** Its value is 124.0 mmHg.

**Q.** What about the “BP after compound (100 μg/kg)” value (α2-AR; [5]) of the same compound?
**A.** Its value is 130.5 mmHg.

**Q.** And the “BP after compound (300 μg/kg)” value (α2-AR; group mean)?
**A.** Its value is 111.7 mmHg.

**Q.** What about the “Δ2 = BP changes between second bolus” value (α2-AR; [6]) of the same compound?
**A.** The value was 32.0 mmHg and 14.0 mmHg.

**Q.** What about the “Δ2 = BP changes between second bolus” value (α2-AR; individual mice, 300 μg/kg compound) of the same compound?
**A.** The value was 8.0 mmHg and 13.0 mmHg and 16.0 mmHg.

**Q.** And the “BP after second bolus NE (0.12 μg/kg)” value (α2-AR; [7])?
**A.** Its value is 158.0 mmHg and 149.0 mmHg.

**Q.** And the “BP after second bolus NE (0.12 μg/kg)” value (α2-AR; individual mice, after 300 μg/kg compound)?
**A.** The value was 128.0 mmHg and 120.0 mmHg and 124.0 mmHg.

**Q.** What about the “BP after compound (100 μg/kg)” value (α2-AR; individual mice) of the same compound?
**A.** The value was 126.0 mmHg and 135.0 mmHg.

**Q.** And the “BP after compound (300 μg/kg)” value (α2-AR; individual mice)?
**A.** Its value is 120.0 mmHg and 107.0 mmHg and 108.0 mmHg.

**Q.** And the dose required to suppress NE effect (α2-AR; mice)?
**A.** The dose required to suppress NE effect was 0.3 mg/kg.

**Q.** And the “Mean BP after 1st bolus (300 ng/kg)” value [1]?
**A.** Its value is 149 ± 7 mmHg.

**Q.** What about the “Mean BP after 2nd bolus (600 ng/kg)” value [1] of the same compound?
**A.** Its value is 140 ± 3 mmHg.

**Q.** And the “Cumulative % drop in mean BP” value ([1]; boluses 300 then 600 ng/kg)?
**A.** The value was −15 ± 4%.

**Q.** With Brc1c(NC2=NCCN2)ccc2nccnc12 [UK 14304, reference compound] as the compound, how does the “suppression of the hypertensive effect of NE” value (α2-AR) read?
**A.** The value was 48%.

**Q.** What about the “Δ2 = BP changes between second bolus” value (α2-AR; group mean, 100 μg/kg compound) of the same compound?
**A.** The value was 15.8 mmHg.

**Q.** What about the “BP after second bolus NE (0.12 μg/kg)” value (α2-AR; [4]) of the same compound?
**A.** Its value is 125.5 mmHg.

**Q.** What about the “BP after compound (100 μg/kg)” value (α2-AR; [5]) of the same compound?
**A.** Its value is 109.8 mmHg.

**Q.** What about the “Δ2 = BP changes between second bolus” value (α2-AR; individual mice, 100 μg/kg compound, listed as UK) of the same compound?
**A.** The value was 20.0 mmHg and 12.0 mmHg and 7.0 mmHg and 24.0 mmHg.

**Q.** And the “BP after second bolus NE (0.12 μg/kg)” value (α2-AR; individual mice, after 100 μg/kg compound, listed as UK)?
**A.** The value was 125.0 mmHg and 123.0 mmHg and 115.0 mmHg and 139.0 mmHg.

**Q.** What about the “BP after compound (100 μg/kg)” value (α2-AR; individual mice, listed as UK) of the same compound?
**A.** Its value is 105.0 mmHg and 111.0 mmHg and 108.0 mmHg and 115.0 mmHg.

**Q.** What about the “decrease in BP” value (α2-AR; mice, 100 Ilg/kg, control α2-agonist) of the same compound?
**A.** The value was 15 mmHg.

**Q.** For CCCCC1=NC2(CCCC2)C(=O)N1Cc1ccc(-c2ccccc2-c2nnn[nH]2)cc1 [Irbesartan], which “Mean BP after 1st bolus (150 ng/kg)” value [1] is on record?
**A.** The value was 141 ± 10 mmHg.

**Q.** What about the “Mean BP after 2nd bolus (300 ng/kg)” value [1] of the same compound?
**A.** The value was 133 ± 11 mmHg.

**Q.** What about the “Cumulative % drop in mean BP” value ([1]; boluses 150 then 300 ng/kg) of the same compound?
**A.** The value was −24 ± 7%.
